What all share (test): relative viability (nuclei count vs DMSO), 5 days (fraction); higher = more cells survive
Compound in assay [1]: CO[C@H]1C[C@@H]2CC[C@@H](C)[C@@](O)(O2)C(=O)C(=O)N2CCCC[C@H]2C(=O)O[C@H]([C@H](C)C[C@@H]2CC[C@@H](OCCO)[C@H](OC)C2)CC(=O)[C@H](C)/C=C(\C)[C@@H](O)[C@@H](OC)C(=O)[C@H](C)C[C@H](C)/C=C/C=C/C=C/1C [Everolimus] + C[C@]1(O)C[C@@H](c2nc(-c3ccc4ccc(-c5ccccc5)nc4c3)c3c(N)nccn32)C1 [Linsitinib] (partner 1 µM)
In a few lines: (§1)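 Each reported value is a median over duplicate plates. It expresses relative viability: treated-well nuclei count divided by vehicle-well nuclei count. Lung cancer cell lines in 1536-well plates were dosed by pin tool a day after seeding, alone with one drug or with a fixed anchor-drug dose plus five library-drug doses (not always all listed) in √10 steps, and nuclei were counted after 5 days.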

Compound in assay [2]: CO[C@H]1C[C@@H]2CC[C@@H](C)[C@@](O)(O2)C(=O)C(=O)N2CCCC[C@H]2C(=O)O[C@H]([C@H](C)C[C@@H]2CC[C@@H](OCCO)[C@H](OC)C2)CC(=O)[C@H](C)/C=C(\C)[C@@H](O)[C@@H](OC)C(=O)[C@H](C)C[C@H](C)/C=C/C=C/C=C/1C [Everolimus] + CC(=O)Nc1cccc(-n2c(=O)n(C3CC3)c(=O)c3c(Nc4ccc(I)cc4F)n(C)c(=O)c(C)c32)c1 [Trametinib] (partner 0.02 µM)
In a few lines: as §1

Compound in assay [3]: CO[C@H]1C[C@@H]2CC[C@@H](C)[C@@](O)(O2)C(=O)C(=O)N2CCCC[C@H]2C(=O)O[C@H]([C@H](C)C[C@@H]2CC[C@@H](OCCO)[C@H](OC)C2)CC(=O)[C@H](C)/C=C(\C)[C@@H](O)[C@@H](OC)C(=O)[C@H](C)C[C@H](C)/C=C/C=C/C=C/1C [Everolimus] + COc1cccc2cc(-c3nc([C@H]4CC[C@H](C(=O)O)CC4)n4ncnc(N)c34)[nH]c12 [OSI-027] (partner 0.5 µM)
Put shortly:
as §1

Compound in assay [4]: CO[C@H]1C[C@@H]2CC[C@@H](C)[C@@](O)(O2)C(=O)C(=O)N2CCCC[C@H]2C(=O)O[C@H]([C@H](C)C[C@@H]2CC[C@@H](OCCO)[C@H](OC)C2)CC(=O)[C@H](C)/C=C(\C)[C@@H](O)[C@@H](OC)C(=O)[C@H](C)C[C@H](C)/C=C/C=C/C=C/1C [Everolimus] + CS(=O)(=O)CCNCc1ccc(-c2ccc3ncnc(Nc4ccc(OCc5cccc(F)c5)c(Cl)c4)c3c2)o1 [Lapatinib] (partner 2 µM)
In a few lines:
as §1

Relative viability data for 7 cell lines are collected here from the supplement of paper PMC10307832.

Turning to NCI-H23, the relative viability in assay [1] (first compound 0.01 µM) came to 0.288; in assay [1] (first compound 0.03162 µM), 0.3; in assay [1] (first compound 0.1 µM) it was 0.244; in assay [1] (first compound 0.3162 µM) it was 0.251; in assay [1] (first compound 1 µM), 0.271; in assay [2] (first compound 0.01 µM), 0.248. The relative viability in assay [2] (first compound 0.03162 µM) came to 0.204; in assay [2] (first compound 0.1 µM), 0.218; in assay [2] (first compound 0.3162 µM) it was 0.252; in assay [2] (first compound 1 µM), 0.216; in assay [3] (first compound 0.01 µM) it was 0.382; in assay [3] (first compound 0.03162 µM), 0.35. Further, the relative viability in assay [3] (first compound 0.1 µM) is 0.362; in assay [3] (first compound 0.3162 µM), 0.41; in assay [3] (first compound 1 µM) it was 0.378; in assay [4] (first compound 0.01 µM), 0.736; in assay [4] (first compound 0.03162 µM), 0.685; in assay [4] (first compound 0.1 µM), 0.491. The relative viability in assay [4] (first compound 0.3162 µM) came to 0.695; in assay [4] (first compound 1 µM), 0.693.

With NCI-H322M, the relative viability came out at 0.87 in assay [1] (first compound 0.01 µM); 0.695 in assay [1] (first compound 0.03162 µM); 0.683 in assay [1] (first compound 0.1 µM); 0.739 in assay [1] (first compound 0.3162 µM); 0.645 in assay [1] (first compound 1 µM); 0.474 in assay [2] (first compound 0.01 µM). Further, the relative viability in assay [2] (first compound 0.03162 µM) stood at 0.504; in assay [2] (first compound 0.1 µM), 0.495; in assay [2] (first compound 0.3162 µM), 0.463; in assay [2] (first compound 1 µM) it was 0.484; in assay [3] (first compound 0.01 µM), 0.425; in assay [3] (first compound 0.03162 µM), 0.501. For the same cell line, the relative viability turned out to be 0.473 in assay [3] (first compound 0.1 µM); 0.433 in assay [3] (first compound 0.3162 µM); 0.495 in assay [3] (first compound 1 µM); 0.547 in assay [4] (first compound 0.01 µM); 0.545 in assay [4] (first compound 0.03162 µM); 0.601 in assay [4] (first compound 0.1 µM). For the same cell line, the relative viability in assay [4] (first compound 0.3162 µM) is 0.526; in assay [4] (first compound 1 µM) it was 0.508.

Regarding NCI-H358, the relative viability in assay [1] (first compound 0.01 µM) turned out to be 0.421; in assay [1] (first compound 0.03162 µM), 0.533; in assay [1] (first compound 0.1 µM) it was 0.544; in assay [1] (first compound 0.3162 µM) it was 0.388; in assay [1] (first compound 1 µM) it was 0.347; in assay [2] (first compound 0.01 µM), 0.105. Also, the relative viability amounted to 0.102 in assay [2] (first compound 0.03162 µM); 0.114 in assay [2] (first compound 0.1 µM); 0.129 in assay [2] (first compound 0.3162 µM); 0.109 in assay [2] (first compound 1 µM); 0.347 in assay [3] (first compound 0.01 µM); 0.337 in assay [3] (first compound 0.03162 µM). Besides, the relative viability came out at 0.336 in assay [3] (first compound 0.1 µM); 0.34 in assay [3] (first compound 0.3162 µM); 0.378 in assay [3] (first compound 1 µM); 0.309 in assay [4] (first compound 0.01 µM); 0.338 in assay [4] (first compound 0.03162 µM); 0.377 in assay [4] (first compound 0.1 µM). The relative viability in assay [4] (first compound 0.3162 µM) amounted to 0.345; in assay [4] (first compound 1 µM), 0.295.

Turning to NCI-H460, the relative viability in assay [1] (first compound 0.01 µM) turned out to be 0.42; in assay [1] (first compound 0.03162 µM) it was 0.45; in assay [1] (first compound 0.1 µM), 0.365; in assay [1] (first compound 0.3162 µM), 0.301; in assay [1] (first compound 1 µM), 0.381; in assay [2] (first compound 0.01 µM), 0.082. Besides, the relative viability came out at 0.101 in assay [2] (first compound 0.03162 µM); 0.114 in assay [2] (first compound 0.1 µM); 0.0573 in assay [2] (first compound 0.3162 µM); 0.124 in assay [2] (first compound 1 µM); 0.389 in assay [3] (first compound 0.01 µM); 0.503 in assay [3] (first compound 0.03162 µM). In addition, the relative viability in assay [3] (first compound 0.1 µM) was 0.304; in assay [3] (first compound 0.3162 µM), 0.314; in assay [3] (first compound 1 µM), 0.333; in assay [4] (first compound 0.01 µM), 0.912; in assay [4] (first compound 0.03162 µM), 0.919; in assay [4] (first compound 0.1 µM), 0.805. Also, the relative viability was determined as 0.866 in assay [4] (first compound 0.3162 µM) and 0.84 in assay [4] (first compound 1 µM).

Consider NCI-H520, for which the relative viability came out at 0.533 in assay [1] (first compound 0.01 µM); 0.441 in assay [1] (first compound 0.03162 µM); 0.532 in assay [1] (first compound 0.1 µM); 0.343 in assay [1] (first compound 0.3162 µM); 0.372 in assay [1] (first compound 1 µM); 0.292 in assay [2] (first compound 0.01 µM). The relative viability in assay [2] (first compound 0.03162 µM) amounted to 0.286; in assay [2] (first compound 0.1 µM), 0.245; in assay [2] (first compound 0.3162 µM), 0.249; in assay [2] (first compound 1 µM), 0.256; in assay [3] (first compound 0.01 µM), 0.21; in assay [3] (first compound 0.03162 µM) it was 0.179. The relative viability in assay [3] (first compound 0.1 µM) was determined as 0.218; in assay [3] (first compound 0.3162 µM) it was 0.185; in assay [3] (first compound 1 µM) it was 0.193; in assay [4] (first compound 0.01 µM) it was 0.379; in assay [4] (first compound 0.03162 µM) it was 0.39; in assay [4] (first compound 0.1 µM), 0.313. The relative viability was 0.285 in assay [4] (first compound 0.3162 µM) and 0.405 in assay [4] (first compound 1 µM).

Take NCI-H596: the relative viability in assay [1] (first compound 0.01 µM) worked out at 0.653; in assay [1] (first compound 0.03162 µM) it was 0.651; in assay [1] (first compound 0.1 µM) it was 0.53; in assay [1] (first compound 0.3162 µM), 0.532; in assay [1] (first compound 1 µM), 0.515; in assay [2] (first compound 0.01 µM), 0.613. Also, the relative viability in assay [2] (first compound 0.03162 µM) came to 0.507; in assay [2] (first compound 0.1 µM) it was 0.497; in assay [2] (first compound 0.3162 µM), 0.525; in assay [2] (first compound 1 µM), 0.575; in assay [3] (first compound 0.01 µM), 0.506; in assay [3] (first compound 0.03162 µM), 0.471. Besides, the relative viability in assay [3] (first compound 0.1 µM) is 0.417; in assay [3] (first compound 0.3162 µM), 0.45; in assay [3] (first compound 1 µM), 0.457; in assay [4] (first compound 0.01 µM), 0.715; in assay [4] (first compound 0.03162 µM), 0.677; in assay [4] (first compound 0.1 µM) it was 0.545. Also, the relative viability is 0.676 in assay [4] (first compound 0.3162 µM) and 0.677 in assay [4] (first compound 1 µM).

For NCI-H647, the relative viability in assay [1] (first compound 0.01 µM) was 0.629; in assay [1] (first compound 0.03162 µM), 0.76; in assay [1] (first compound 0.1 µM) it was 0.58; in assay [1] (first compound 0.3162 µM), 0.647; in assay [1] (first compound 1 µM), 0.653; in assay [2] (first compound 0.01 µM) it was 0.258. Also, the relative viability in assay [2] (first compound 0.03162 µM) amounted to 0.318; in assay [2] (first compound 0.1 µM), 0.288; in assay [2] (first compound 0.3162 µM) it was 0.252; in assay [2] (first compound 1 µM), 0.293; in assay [3] (first compound 0.01 µM) it was 0.363; in assay [3] (first compound 0.03162 µM), 0.401. Besides, the relative viability came out at 0.343 in assay [3] (first compound 0.1 µM); 0.449 in assay [3] (first compound 0.3162 µM); 0.489 in assay [3] (first compound 1 µM); 0.583 in assay [4] (first compound 0.01 µM); 0.562 in assay [4] (first compound 0.03162 µM); 0.505 in assay [4] (first compound 0.1 µM). The relative viability came out at 0.536 in assay [4] (first compound 0.3162 µM) and 0.87 in assay [4] (first compound 1 µM).
